One experiment deals with MCF-7 cells. The experiment can be described thus: Annexin-V/PI apoptosis assay by flow cytometry, MCF-7. As to conditions: IC50 concentration, 48 h. Type of experiment: cell-based, human. The method, then:
Annexin-V staining was used to assess the apoptotic potential of the selected hydrazones as described.[22,41] Briefly, cells were treated with IC50 concentration of selected hydrazones for 24 h and control cells were treated with DMSO/culture medium only. After 24 h incubation, approximately 2.0–2.5 × 10^6 cells were collected by trypsinization and washed twice with PBS (5–10 mL). Finally, FITC labelled Annexin-V and PE labelled PI was used for staining the cells using the FITC-Annexin-V kit by following manufacture instructions (BD-Biosciences, USA). Nearly, 10 000 events were recorded using BD LSR II Flow Cytometry Analyzer and analyzed by FlowJo software.
Cancer cells support their growth and maintenance by evading the apoptotic pathways.[48] MARK4 regulates the cancer cell growth and proliferation via modulating the apoptotic pathways.[12,15,46] The treatment of MCF-7 and A549 cells with H4 and H19 inhibit the activity of MARK4, decreases cell proliferation and migration raises the evaluation of these MARK4 inhibitors for the apoptosis induction. Thus, to investigate whether the selected inhibitor induces cell death via apoptosis or not, we have performed Annexin-V/PI staining using flow cytometry. Cells were treated with IC50 concentration of each molecule for 48 h and processed for apoptosis analysis. […]
A general note: A flow cytometer gives signals particle by particle.

The target in experiment [1] is human serum albumin (HSA) (Homo sapiens, UniProt P02768). The experiment can be described thus: Fluorescence quenching binding study with HSA. The conditions noted are these: Stern–Volmer plot, ligand 0–20 μM, HSA 5–10 μM. The method, then: The binding affinity of selected hydrazone derivatives with human serum albumin (HSA) and MARK4 was carried out using fluorescence binding studies as described.[39] The values of binding constant (Ka) and a number of binding sites present in protein (n) were obtained by using the modified Stern–Volmer equation from the intercept and slope, respectively.
To measure the actual binding affinity of selected ligands with MARK4 and HSA, fluorescence quenching studies were performed.[43,44] Both MARK4 and HSA contain tryptophan residues, therefore it has been used as an intrinsic fluorophore to estimate the interaction of ligand. Protein was excited at 280 nm and the emission spectrum was recorded in 300–400 nm range. With increasing ligand concentrations (0–20 μM), the fluorescence intensity of MARK4 and HSA was decreases in a concentration-dependent manner (Fig. 3 and 4), indicating a considerable binding. Values of Ka and n were calculated from fluorescence emission spectra using the Stern–Volmer plot. […]
Fig. 4 Binding of compound H4 and H19 with HSA. (A) Fluorescence emission spectra of HSA (5–10 μM) with increasing concentrations of compound H4 and H19. (B) Stern–Volmer plot obtained from the fluorescence quenching data of HSA by compound H4 and H19, respectively. Protein sample was excited at 280 nm and emission for each titration was recorded in the range of 300–400 nm. […]

A further experiment deals with A549 cells. In words: MTT cell proliferation assay, A549. It counts as cell-based. The conditions noted are these: Homo sapiens, read-out: IC50, cell proliferation, A549 cells. The method, then:
Human cell lines (HEK-293, A549 and MCF-7) were seeded and maintained in a medium supplemented with DMEM along with 10% heat-inactivated fetal bovine serum (Gibco) and 1% penicillin, streptomycin solution (Gibco), cultured in a 5% CO2 humidified incubator at 37 °C. Cell cultures were maintained and trypsinized regularly, not for more than 30 passages. MTT assay was carried out to see the effect of selected hydrazone compound treatment on the viability of non-cancerous (HEK-293) and cancerous cell lines (A549 and MCF-7) as per described method.[22,24] In brief, 6000–7000 cells per well were seeded in a 96-well plate and after 24 h growth, the cells were treated with increasing concentrations (0–200 μM) of each hydrazone (final volume of 200 μL) for 48 h at 37 °C in a humidified chamber. After 48 h, MTT was added (20 μL solution from 5 mg mL^−1 stock solution prepared in phosphate buffer saline, pH 7.4) to each well and plates were further incubated for 4–5 h at 37 °C in a CO2 incubator. The supernatant was aspirated and the formazan crystals were dissolved in 150 μL of DMSO. The absorbance (A) of final products was measured using multiplate ELISA reader (BioRad) at 570 nm. The percentage of cell viability was calculated and IC50 (50% inhibitory concentration) values of each hydrazone derivative were estimated (paclitaxel was taken as a positive control for cell proliferation studies).
Background: Formazan colour is commonly taken as a measure of viable cells.

Each structure is given as a SMILES string. Like-named read-outs stand apart in the source and are kept apart here.

Chain of human serum albumin (HSA) (P02768 25-609): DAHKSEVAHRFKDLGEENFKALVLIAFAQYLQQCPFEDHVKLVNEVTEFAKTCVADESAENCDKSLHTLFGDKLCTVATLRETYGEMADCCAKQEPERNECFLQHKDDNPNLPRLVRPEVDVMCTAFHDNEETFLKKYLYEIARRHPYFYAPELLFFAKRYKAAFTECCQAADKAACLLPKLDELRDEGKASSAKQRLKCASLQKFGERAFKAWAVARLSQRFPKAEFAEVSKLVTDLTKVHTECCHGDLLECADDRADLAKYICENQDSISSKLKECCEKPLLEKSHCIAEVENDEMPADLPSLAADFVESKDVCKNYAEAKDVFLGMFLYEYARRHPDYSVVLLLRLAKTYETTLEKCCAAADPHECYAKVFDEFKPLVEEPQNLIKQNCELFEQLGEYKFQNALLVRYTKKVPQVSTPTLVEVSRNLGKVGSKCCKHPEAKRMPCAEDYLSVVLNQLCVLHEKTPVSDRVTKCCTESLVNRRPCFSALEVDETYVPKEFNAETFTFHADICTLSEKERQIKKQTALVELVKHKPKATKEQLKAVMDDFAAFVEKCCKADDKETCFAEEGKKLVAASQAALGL

As for `CN(C)CCOc1ccc(C(=O)NN=Cc2ccc(Cl)cc2)cc1` [H4], the “apoptosis induced, share of MCF-7 cells” value in the experiment with MCF-7 cells is given as 30.29%. Moreover, in experiment [1], the “binding constant Ka for HSA” value was 443000 M⁻¹. Also, in the experiment with A549 cells (A549, MTT, 48 h, 0–200 μM), the IC50 stood at 45.2 µM.
Take `Cc1cc(C)c(C=NNC(=O)c2ccc(OCCN(C)C)cc2)c(C)c1` [H19]: the “apoptosis induced, share of MCF-7 cells” value in the experiment with MCF-7 cells came out at 26.71%. For the same molecule, the Kd in experiment [1] (read-out: binding constant Ka for HSA (converted)) was 7.69 µM. Further, in the experiment with A549 cells (A549, 48 h), the IC50 came to 61.5 µM.

For the origin of these results see paper PMC9054212, “Discovery of 4-(2-(dimethylamino)ethoxy)benzohydrazide derivatives as prospective microtubule affinity regulating kinase 4 inhibitors” (RSC Advances, 2020).
